The values that follow are results of earlier work, collected in patent US6458386B1, “Medicaments based on polymers composed of methacrylamide-modified gelatin” (Innogenetics N.V., priority 1997, dated 2002).

Data set [1] relates to large cutaneous burns. The following applies: children.
In data set [2] the test system is chronic pressure ulcers. The following applies: humans.
The test system of data set [3] is full thickness macular holes. The following applies: human eyes.

As for Human Growth Hormone: hormone, the “wound healing of large cutaneous burns” value in data set [1] was “accelerate wound healing”. As to Platelet Derived Growth Factor, the “wound healing of chronic pressure ulcers” value in data set [2] is listed as “wound healing stimulator”. Transforming Growth Factor-β: the “effect in treatment of full thickness macular holes” value in data set [3] was “beneficial effects”.
